Results reported in patent US12338203B2 (TAISHO PHARMACEUTICAL CO., LTD., priority 2019, dated 2025).

Target: T1, human LPAR1 (Homo sapiens, UniProt Q92633)
T1 construct: expressed in transfected cells
Assay: Test Example 1: antagonism against response of LPA-induced increase in intracellular Ca2+ concentration in RH7777 cells stably expressing human LPAR1
Type: cell-based
Conditions: RH7777 cells stably expressing human LPAR1; Fluo-4 fluorescence, FDSS6000; read-out: IC50 value (concentration producing 50% antagonism against response of LPA-induced increase in intracellular Ca2+ concentration) (converted)
In short: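 RH7777 cells stably transfected with human LPAR1 were preincubated with test compound 30 min at 37 °C in HBSS/20 mM HEPES/probenecid/0.05% BSA buffer, pH 7.4, then LPA-stimulated.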

T1 sequence (Q92633 whole entry): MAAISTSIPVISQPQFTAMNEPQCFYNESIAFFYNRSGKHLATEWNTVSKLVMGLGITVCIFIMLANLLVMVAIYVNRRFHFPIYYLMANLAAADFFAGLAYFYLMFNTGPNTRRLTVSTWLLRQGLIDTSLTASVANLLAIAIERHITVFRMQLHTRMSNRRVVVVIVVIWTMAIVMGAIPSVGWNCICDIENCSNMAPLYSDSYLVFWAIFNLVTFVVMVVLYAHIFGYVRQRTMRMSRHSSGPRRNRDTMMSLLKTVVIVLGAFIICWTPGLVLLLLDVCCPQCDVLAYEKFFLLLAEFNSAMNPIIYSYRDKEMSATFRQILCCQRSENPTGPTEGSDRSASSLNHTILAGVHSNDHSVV

Row | SMILES | IC50
1 | CCOc1cc([C@@H](C)N(CCC(F)(F)Cc2ccccc2)C(=O)N[C@]2(C(=O)O)C[C@@H](OC)C2)cc(OCC)c1C1CC1 [Example 4-91] | 1.97 nM
2 | CCOc1cc([C@@H](C)N(CCC(F)(F)Cc2ccccc2)C(=O)NC2(C(=O)O)CC(OCC)C2)cc(OCC)c1C(C)=O (stereo partly drawn) [Example 4-92] | 7.79 nM
3 | CCOc1cc([C@@H](C)N(CCC(F)(F)Cc2ccccc2)C(=O)NC2(C(=O)O)CC(OCC)C2)cc(OCC)c1C(C)=O (stereo partly drawn) [Example 4-93] | 10.1 nM
4 | CCOc1cc([C@@H](C)N(CCC(F)(F)Cc2ccccc2)C(=O)NC2(C(=O)O)CC(OCC)C2)cc(OCC)c1C1CC1 (stereo partly drawn) [Example 4-94] | 3.61 nM
5 | CCOc1cc([C@@H](C)N(CCC(F)(F)Cc2ccccc2)C(=O)NC2(C(=O)O)CCOCC2)cc(OCC)c1C(C)=O [Example 4-95] | 37.4 nM
6 | CCOc1cc([C@@H](C)N(CCC(F)(F)Cc2ccccc2)C(=O)NC2(C(=O)O)CCOCC2)cc(OCC)c1C1CC1 [Example 4-96] | 8.25 nM
7 | CCOc1cc([C@@H](C)N(CCO[C@@H](C)c2ccccc2)C(=O)N[C@]2(C(=O)O)C[C@@H](OCC)C2)cc(OCC)c1C(C)=O [Example 4-97, Trans-1-[([(1R)-1-(4-Acetyl-3,5-Diethoxyphenyl)Ethyl]{2-[(1S)-1-Phenylethoxy]Ethyl}Carbamoyl)Amino]-3-Ethoxycyclobutane-1-Carboxylic Acid] | 3.63 nM
8 | CCOc1cc([C@@H](C)N(CCCOc2ccccc2)C(=O)NC2(C(=O)O)CC(F)(F)C2)cc(OCC)c1C [Example 4-98] | 5.48 nM
9 | CCOc1cc([C@@H](C)N(CCOCc2ccccc2)C(=O)NC2(C(=O)O)CCC2)cc(OCC)c1C(C)=O [Example 4-101] | 1.25 nM
10 | CCOc1cc([C@@H](C)N(CCOCc2ccccc2)C(=O)NC2(C(=O)O)CC(F)(F)C2)cc(OCC)c1C(C)=O [Example 4-102] | 0.815 nM
11 | CCOc1cc([C@@H](C)N(CCOCc2ccccc2)C(=O)NC2(C(=O)O)CC(F)(F)C2)cc(OCC)c1C(C)O (stereo partly drawn) [Example 4-103] | 1.98 nM
12 | CCOc1cc([C@@H](C)N(CCOCc2ccccc2)C(=O)NC2(C(=O)O)CC(F)(F)C2)cc(OCC)c1C(C)O (stereo partly drawn) [Example 4-104] | 1.31 nM
13 | CCOc1c(C(C)=O)ccc([C@@H](C)N(CCOCc2ccccc2)C(=O)NC2(C(=O)O)CC(F)(F)C2)c1C [Example 4-106] | 1.04 nM
14 | CCOc1cc([C@@H](C)N(CCOCc2ccccc2)C(=O)NC2(C(=O)O)CC(OC)C2)cc(OCC)c1C(C)=O (stereo partly drawn) [Example 4-107] | 4.08 nM
15 | CCOc1cc([C@@H](C)N(CCOCc2ccccc2)C(=O)NC2(C(=O)O)CC(OC)C2)cc(OCC)c1C(C)=O (stereo partly drawn) [Example 4-108] | 3.6 nM
16 | CCOc1cc([C@@H](C)N(CCOCc2ccccc2)C(=O)NC2(C(=O)O)CC(OCC)C2)cc(OCC)c1C(C)=O (stereo partly drawn) [Example 4-109] | 1.59 nM
17 | CCOc1cc([C@@H](C)N(CCOCc2ccccc2)C(=O)NC2(C(=O)O)CCOCC2)cc(OCC)c1C(C)=O [Example 4-110] | 4.31 nM
18 | CCOc1cc([C@@H](C)N(CCO[C@@H](C)c2ccccc2)C(=O)NC2(C(=O)O)CC2)cc(OCC)c1C(C)=O [Example 4-111] | 3.07 nM
19 | CCOc1cc([C@@H](C)N(CCO[C@@H](C)c2ccccc2)C(=O)NC2(C(=O)O)CC2)cc(OCC)c1C1CC1 [Example 4-112] | 1.49 nM
20 | CCOc1c(C(C)=O)ccc([C@@H](C)N(CCO[C@@H](C)c2ccccc2)C(=O)NC2(C(=O)O)CC2)c1C [Example 4-113] | 8.95 nM
21 | CCOc1cc([C@@H](C)N(CCO[C@@H](C)c2ccccc2)C(=O)NC2(C(=O)O)CCC2)cc(OCC)c1C(C)=O [Example 4-114] | 2.54 nM
22 | CCOc1cc([C@@H](C)N(CCO[C@@H](C)c2ccccc2)C(=O)NC2(C(=O)O)CCC2)cc(OCC)c1C1CC1 [Example 4-115] | 1.23 nM
23 | CCOc1c(C(C)=O)ccc([C@@H](C)N(CCO[C@@H](C)c2ccccc2)C(=O)NC2(C(=O)O)CCC2)c1C [Example 4-116] | 3.91 nM
24 | CCOc1cc([C@@H](C)N(CCO[C@@H](C)c2ccccc2)C(=O)NC2(C(=O)O)CC(F)(F)C2)cc(OCC)c1C(C)=O [Example 4-117] | 2.52 nM
25 | CCOc1cc([C@@H](C)N(CCO[C@@H](C)c2ccccc2)C(=O)NC2(C(=O)O)CC(F)(F)C2)cc(OCC)c1C1CC1 [Example 4-118] | 0.948 nM
26 | CCOc1c(C(C)=O)ccc([C@@H](C)N(CCO[C@@H](C)c2ccccc2)C(=O)NC2(C(=O)O)CC(F)(F)C2)c1C [Example 4-119] | 3.13 nM
27 | CCOc1cc([C@@H](C)N(CCO[C@@H](C)c2ccccc2)C(=O)N[C@H]2C[C@@](C)(C(=O)O)C2)cc(OCC)c1C(C)=O [Example 4-120] | 15.2 nM

Row | SMILES | IC50
28 | CCOc1cc([C@@H](C)N(CCO[C@@H](C)c2ccccc2)C(=O)N[C@]2(C(=O)O)C[C@@H](OC)C2)cc(OCC)c1C(C)=O [Example 4-121] | 3.35 nM
29 | CCOc1cc([C@@H](C)N(CCO[C@@H](C)c2ccccc2)C(=O)N[C@]2(C(=O)O)C[C@H](OC)C2)cc(OCC)c1C(C)=O [Example 4-122] | 4.53 nM
30 | CCOc1cc([C@@H](C)N(CCO[C@@H](C)c2ccccc2)C(=O)NC2(C(=O)O)CC(OC)C2)cc(OCC)c1C(C)O (stereo partly drawn) [Example 4-123] | 7.82 nM
31 | CCOc1cc([C@@H](C)N(CCO[C@@H](C)c2ccccc2)C(=O)NC2(C(=O)O)CC(OC)C2)cc(OCC)c1C(C)O (stereo partly drawn) [Example 4-124] | 5.44 nM
32 | CCOc1cc([C@@H](C)N(CCO[C@@H](C)c2ccccc2)C(=O)NC2(C(=O)O)CC(OC)C2)cc(OCC)c1C(C)O (stereo partly drawn) [Example 4-125] | 7.11 nM
33 | CCOc1cc([C@@H](C)N(CCO[C@@H](C)c2ccccc2)C(=O)NC2(C(=O)O)CC(OC)C2)cc(OCC)c1C(C)O (stereo partly drawn) [Example 4-126] | 3.91 nM
34 | CCOc1cc([C@@H](C)N(CCO[C@@H](C)c2ccccc2)C(=O)NC2(C(=O)O)CC(OC)C2)cc(OCC)c1C1(O)CC1 (stereo partly drawn) [Example 4-127] | 21.3 nM
35 | CCOc1cc([C@@H](C)N(CCO[C@@H](C)c2ccccc2)C(=O)N[C@]2(C(=O)O)C[C@@H](OC)C2)cc(OCC)c1C1CC1 [Example 4-128] | 1.08 nM
36 | CCOc1cc([C@@H](C)N(CCO[C@@H](C)c2ccccc2)C(=O)NC2(C(=O)O)CC(OC)C2)cc(OCC)c1C1CC1 (stereo partly drawn) [Example 4-129, cis-1-[([(1R)-1-(4-cyclopropyl-3,5-diethoxyphenyl)ethyl]{2-[(1S)-1-phenylethoxy]ethyl}carbamoyl)amino]-3-methoxycyclobutane-1-carboxylic acid] | 1.03 nM
37 | CCOc1c(C(C)=O)ccc([C@@H](C)N(CCO[C@@H](C)c2ccccc2)C(=O)NC2(C(=O)O)CC(OC)C2)c1C (stereo partly drawn) [Example 4-130] | 6.66 nM
38 | CCOc1c(C(C)=O)ccc([C@@H](C)N(CCO[C@@H](C)c2ccccc2)C(=O)NC2(C(=O)O)CC(OC)C2)c1C (stereo partly drawn) [Example 4-131] | 10.3 nM
39 | CCOc1cc([C@@H](C)N(CCO[C@@H](C)c2ccccc2)C(=O)NC2(C(=O)O)CC(OCC)C2)cc(OCC)c1C(C)=O (stereo partly drawn) [Example 4-132] | 5.62 nM
40 | CCOc1cc(C(C)N(CCO[C@@H](C)c2ccccc2)C(=O)N[C@]2(C(=O)O)C[C@H](OCC)C2)cc(OCC)c1C(C)O (stereo partly drawn) [Example 4-133] | 5.7 nM
41 | CCOc1cc([C@@H](C)N(CCO[C@@H](C)c2ccccc2)C(=O)N[C@]2(C(=O)O)C[C@H](OCC)C2)cc(OCC)c1C(C)O (stereo partly drawn) [Example 4-134] | 3.92 nM
42 | CCOc1cc([C@@H](C)N(CCO[C@@H](C)c2ccccc2)C(=O)N[C@]2(C(=O)O)C[C@@H](OCC)C2)cc(OCC)c1C(C)O (stereo partly drawn) [Example 4-135] | 5.33 nM
43 | CCOc1cc([C@@H](C)N(CCO[C@@H](C)c2ccccc2)C(=O)N[C@]2(C(=O)O)C[C@@H](OCC)C2)cc(OCC)c1C(C)O (stereo partly drawn) [Example 4-136] | 3.43 nM
44 | CCOc1cc([C@@H](C)N(CCO[C@@H](C)c2ccccc2)C(=O)N[C@]2(C(=O)O)C[C@@H](OCC)C2)cc(OCC)c1C1(O)CC1 [Example 4-137] | 21.9 nM
45 | CCOc1cc([C@@H](C)N(CCO[C@@H](C)c2ccccc2)C(=O)N[C@]2(C(=O)O)C[C@@H](OCC)C2)cc(OCC)c1C1CC1 [Example 4-138, trans-1-[([(1R)-1-(4-cyclopropyl-3,5-diethoxyphenyl)ethyl]{2-[(1S)-1-phenylethoxy]ethyl}carbamoyl)amino]-3-ethoxycyclobutane-1-carboxylic acid] | 2.91 nM
46 | CCOc1cc([C@@H](C)N(CCO[C@@H](C)c2ccccc2)C(=O)N[C@]2(C(=O)O)C[C@@H](OCC)C2)cc(OCC)c1C1CC1 [Example 4-139, cis-1-[([(1R)-1-(4-cyclopropyl-3,5-diethoxyphenyl)ethyl]{2-[(1S)-1-phenylethoxy]ethyl}carbamoyl)amino]-3-ethoxycyclobutane-1-carboxylic acid] | 1.32 nM
47 | CCOc1c(C(C)=O)ccc([C@@H](C)N(CCO[C@@H](C)c2ccccc2)C(=O)N[C@]2(C(=O)O)C[C@@H](OCC)C2)c1C [Example 4-140] | 5.67 nM
48 | CCOc1c(C(C)=O)ccc([C@@H](C)N(CCO[C@@H](C)c2ccccc2)C(=O)N[C@]2(C(=O)O)C[C@H](OCC)C2)c1C [Example 4-141] | 7.62 nM
49 | CCOc1cc([C@@H](C)N(CCO[C@@H](C)c2ccccc2)C(=O)NC2(C(=O)O)CCOCC2)cc(OCC)c1C(C)=O [Example 4-142] | 5.9 nM
50 | CCOc1c(C(C)=O)ccc([C@@H](C)N(CCO[C@H](C)c2ccccc2)C(=O)NC2(C(=O)O)CC2)c1C [Example 4-147] | 11.6 nM
51 | CCOc1c(C(C)=O)ccc([C@@H](C)N(CCO[C@H](C)c2ccccc2)C(=O)NC2(C(=O)O)CCC2)c1C [Example 4-148] | 3.22 nM
52 | CCOc1cc([C@@H](C)N(CCO[C@H](C)c2ccccc2)C(=O)NC2(C(=O)O)CC(F)(F)C2)cc(OCC)c1C(C)=O [Example 4-149] | 3.4 nM
53 | CCOc1cc([C@@H](C)N(CCO[C@H](C)c2ccccc2)C(=O)NC2(C(=O)O)CC(F)(F)C2)cc(OCC)c1C1CC1 [Example 4-150] | 1.55 nM
54 | CCOc1c(C(C)=O)ccc([C@@H](C)N(CCO[C@H](C)c2ccccc2)C(=O)NC2(C(=O)O)CC(F)(F)C2)c1C [Example 4-151] | 2.62 nM
